Measured values taken from publication PMC8558179, “The C-terminal peptide of CCL21 drastically augments CCL21 activity through the dendritic cell lymph node homing receptor CCR7 by interaction with the receptor N-terminus” (Cellular and Molecular Life Sciences: CMLS, 2021).

B1: CCL21: full-length chemokine (residues 1–111), CCR7 ligand, from R&D Systems (protein, UniProt O00585 24-134, looked up)
C-C motif chemokine 21: SDGGAQDCCLKYSQRKIPAKVVRSYRKQEPSLGCSIPAILFLPRKRSQAELCADPKELWVQQLMQHLDKTPSPQKPAQGCRKDRGASKTGKKGKGSKGCKRTERSQTPKGP

How the values were obtained:
CCR6 = assay: Gαi signaling, BRET cAMP assay at CCR6 in CHO cells; format: cell-based; details: CCL20 + 10 µM TP71-111, CHO cells, n = 3
Description: For cAMP assays, adherent CHO cells were transfected using lipofectamine while suspension cells were transfected using the FectoPro method. Cells were seeded in a 6-well plate, either 500,000 (adherent cells) or 200,000 (suspension cells) cells/well. The next day the cells were transiently transfected with vectors encoding the human CCR7 and CAMYEL sensor (cAMP sensor using YFP-Epac-RLuc) in a 1:5 ratio using lipofectamine (6 µl/well) or FectoPro (4 µl/well). Lipofectamine transfections were terminated by changing to 2 ml fresh cultivation medium after 5 h, while Fectopro transfection was terminated after 3 h by adding 2.5 ml fresh cultivation medium and 2 µl FectoPro Boost reagent per well. The cells were incubated under standard cultivation conditions overnight. […] Emission signal from Rluc and eYFP was measured using the Envision machine at 530 and 480 nm and the BRET signal determined as the ratio between (eYFP/Rluc).
Supplementary file 18_2021_3930_MOESM2_ESM.png: Supplementary file2 C21TP also boosts signaling of the DC expressed chemokine receptor CCR6. […] B) CCL20-induced CCR6 Gαi –signaling in CHO cells quantified using the BRET Based cAMP assay. […] Statistical significance was calculated using two-way ANOVA with Sidek’s correction for multiple test. *P<0.05, **P <0.01, ***P <0.001, ns, not significant (PNG 878 KB)

CCR7 (primary T cells) = details: heterologous competition binding, apparent affinity; cited from earlier work
From the text: In the absence of peptide, CCL19 and CCL21 contact CCR7 in different manners. The interaction of CCL21 depends on residues in the top of TM-3, -4 and -5 that are not important for CCL19 interaction with CCR7. The binding of these two chemokines induce different structural changes in CCR7 to disrupt old and create new hydrogen bonds. CCL21 binding to CCR7 is believed to involve movements within the majority of helical domains (TM2, -3, -4, -5, -6, and -7), whereas the changes induced by CCL19 are restricted to regions of TM3, -5, and -6 [37]. The conformational changes in CCR7 ind ...

Row | Molecule | boosting of CCL20-induced signaling at CCR6 (CCR6) | boosting of CCL20-induced signaling at CCR6 (CCR6; listed as C21TP) | fold lower binding affinity of CCL21 in primary T cells (CCR7 (primary T cells))
1 | TP71-111: free CCL21 C-terminal peptide, residues 71–111 (41 amino acids, positively charged) (PSPQKPAQGCRKDRGASKTGKKGKGSKGCKRTERSQTPKGP; UniProt O00585 94-134, looked up, fragment) | very similar to the boosting observed with CCL19 acting at CCR7 | also boosts CCL20 signaling via CCR6 | 
2 | B1 |  |  | sixfold lower binding affinity
